The results in this text go back to PubChem BioAssay AID192 (DTP/NCI, 2004).

Where “and” joins values, the source holds several entries; their conditions need not be identical. Identical values can stand only once. Inconclusive results and toxic doses are left out.

This test has as its system BDF1 mice, B16 melanoma ip, median survival T/C. In words: NCI In Vivo Anticancer Drug Screen. Data for tumor model B16 Melanoma (intraperitoneal) in B6D2F1 (BDF1) mice. Conditions: endpoint: median survival time, higher = longer survival. The method in brief:
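Mice with transplantable tumors; drug vs vehicle groups; endpoint survival or tumor size; value = T/C.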

Setting [1] is: dose: 12.5 mg/kg/injection, schedule: Q01DX009 (ip), vehicle: saline with Tween-80.
Where [2] appears, read: dose: 25.0 mg/kg/injection, schedule: Q01DX009 (ip), vehicle: saline with Tween-80.
Where [3] appears, read: dose: 50.0 mg/kg/injection, schedule: Q01DX009 (ip), vehicle: saline with Tween-80.
Where [4] appears, read: dose: 100.0 mg/kg/injection, schedule: Q01DX009 (ip), vehicle: saline with Tween-80.
[5] abbreviates: dose: 200.0 mg/kg/injection, schedule: Q01DX009 (ip), vehicle: saline with Tween-80.
The mark [6] stands for this setting: dose: 25.0 mg/kg/injection, schedule: Q01DX009 (ip), vehicle: Klucel (hydroxypropylcellulose) (HPC).
Where [7] appears, read: dose: 50.0 mg/kg/injection, schedule: Q01DX009 (ip), vehicle: Klucel (hydroxypropylcellulose) (HPC).
The mark [8] stands for this setting: dose: 100.0 mg/kg/injection, schedule: Q01DX009 (ip), vehicle: Klucel (hydroxypropylcellulose) (HPC).
Setting [9] is: dose: 12.5 mg/kg/injection, schedule: Q01DX009 (ip), vehicle: Klucel (hydroxypropylcellulose) (HPC).
[10] abbreviates: dose: 200.0 mg/kg/injection, schedule: Q01DX009 (ip), vehicle: Klucel (hydroxypropylcellulose) (HPC).
The mark [11] stands for this setting: dose: 400.0 mg/kg/injection, schedule: Q01DX009 (ip), vehicle: Klucel (hydroxypropylcellulose) (HPC).
[12] abbreviates: dose: 50.0 mg/kg/injection, schedule: Q04DX003 (ip), vehicle: saline with Tween-80.
[13] abbreviates: dose: 50.0 mg/kg/injection, schedule: Q01DX009 (ip), vehicle: saline.
[14] abbreviates: dose: 100.0 mg/kg/injection, schedule: Q01DX009 (ip), vehicle: saline.
The mark [15] stands for this setting: dose: 6.25 mg/kg/injection, schedule: Q01DX009 (ip), vehicle: saline with Tween-80.

For `C/C=C/C=C1/OC(C)=C(C(C)=O)C1=O`, the T/C by setting is: under setting [1], 102 % of control and 111 % of control; under setting [2], 102 % of control; under setting [3], 102 % of control and 110 % of control; under setting [4], 96 % of control and 109 % of control; under setting [5], 104 % of control; (dose: 400.0 mg/kg/injection, schedule: Q01DX009 (ip), vehicle: saline with Tween-80) 98 % of control.
As to `CC(=N\O)/C(C)=N/O.CC(=N\O)/C(C)=N/O.CC(=N\O)/C(C)=N/O.CC(=N\O)/C(C)=N/O.[CH3-].[CH3-].[Co].[Co]`, the T/C is, setting by setting: under setting [6], 107 % of control; under setting [7], 90 % of control; under setting [8], 100 % of control.
In the case of `O=c1cc(-c2ccccc2)[nH]c(-c2ccccc2)c1`, the T/C by setting is: (dose: 8.0 mg/kg/injection, schedule: Q01DX009 (ip), vehicle: saline with Tween-80) 95 % of control; (dose: 18.0 mg/kg/injection, schedule: Q01DX009 (ip), vehicle: saline with Tween-80) 97 % of control.
For the compound `Cc1cccc(C)c1N.[C-]#[O+].[C-]#[O+].[C-]#[O+].[Cr]`, the T/C is 103 % of control (dose: 6.25 mg/kg/injection, schedule: Q01DX009 (ip), vehicle: Klucel (hydroxypropylcellulose) (HPC)); 100 % of control under setting [9]; 100 % of control and 112 % of control under setting [6].
Turning to `CC(C)N(C(=O)Nc1ccccc1Cl)c1ccccc1`, the T/C is 89 % of control under setting [8], 91 % of control under setting [10] and 92 % of control under setting [11].
`COC(=O)C(C(=O)OC)C(Br)(OC(C)=O)OC(C)=O`: the T/C under setting [12] is 105 % of control; the T/C (dose: 100.0 mg/kg/injection, schedule: Q04DX003 (ip), vehicle: saline with Tween-80) was 95 % of control; the T/C (dose: 200.0 mg/kg/injection, schedule: Q04DX003 (ip), vehicle: saline with Tween-80) was 99 % of control; the T/C (dose: 400.0 mg/kg/injection, schedule: Q04DX003 (ip), vehicle: saline with Tween-80) was 103 % of control.
Consider `CC1CC(NC(=O)/C=C/C(=O)O)CC(C)(C)C1` (stereo unspecified), for which the T/C under setting [8] was 93 % of control, the T/C under setting [10] is 95 % of control and the T/C under setting [11] is 93 % of control.
Consider `C1CNCCN1`, for which the T/C was 93 % of control (dose: 25.0 mg/kg/injection, schedule: Q01DX009 (ip), vehicle: suspension in saline); 102 % of control (dose: 50.0 mg/kg/injection, schedule: Q01DX009 (ip), vehicle: suspension in saline); 106 % of control (dose: 100.0 mg/kg/injection, schedule: Q01DX009 (ip), vehicle: suspension in saline); 90 % of control (dose: 200.0 mg/kg/injection, schedule: Q01DX009 (ip), vehicle: suspension in saline).
Turning to `Nc1ncnc2c1ncn2C1OCC(O)C1O` (stereo unspecified), the T/C reads like this: (dose: 12.5 mg/kg/injection, schedule: Q01DX009 (ip), vehicle: saline) 101 % of control; (dose: 25.0 mg/kg/injection, schedule: Q01DX009 (ip), vehicle: saline) 108 % of control; under setting [13], 116 % of control.
As to `NC(=O)C(O)C(O)C(O)C(O)C(N)=O` (stereo unspecified), the T/C runs as follows: under setting [14], 106 % of control; (dose: 200.0 mg/kg/injection, schedule: Q01DX009 (ip), vehicle: saline) 100 % of control.
Regarding `COc1ccc(C(=O)/C(Br)=C/C(=O)O)cc1`, the T/C was 99 % of control (dose: 2.5 mg/kg/injection, schedule: Q01DX009 (ip), vehicle: saline); 96 % of control (dose: 5.0 mg/kg/injection, schedule: Q01DX009 (ip), vehicle: saline); 95 % of control and 98 % of control (dose: 10.0 mg/kg/injection, schedule: Q01DX009 (ip), vehicle: saline); 96 % of control (dose: 20.0 mg/kg/injection, schedule: Q01DX009 (ip), vehicle: saline); 95 % of control and 100 % of control (dose: 40.0 mg/kg/injection, schedule: Q01DX009 (ip), vehicle: saline).
For the compound `CCCCCCCCCCCCCCCC(=O)N(C/C=C/CN(CCCN(C)C)C(=O)CCCCCCCCCCCCCCC)CCCN(C)C`, the T/C runs as follows: (dose: 0.78 mg/kg/injection, schedule: Q01DX009 (ip), vehicle: saline with Tween-80) 86 % of control; (dose: 1.56 mg/kg/injection, schedule: Q01DX009 (ip), vehicle: saline) 90 % of control; (dose: 1.6 mg/kg/injection, schedule: Q01DX009 (ip), vehicle: saline with Tween-80) 104 % of control; (dose: 3.13 mg/kg/injection, schedule: Q01DX009 (ip), vehicle: saline with Tween-80) 97 % of control; (dose: 3.2 mg/kg/injection, schedule: Q01DX009 (ip), vehicle: saline with Tween-80) 95 % of control; under setting [15], 95 % of control. The T/C was 91 % of control (dose: 6.3 mg/kg/injection, schedule: Q01DX009 (ip), vehicle: saline with Tween-80); 177 % of control (dose: 12.5 mg/kg/injection, schedule: Q04DX003 (ip), vehicle: saline with Tween-80); 158 % of control under setting [2]; 163 % of control (dose: 25.0 mg/kg/injection, schedule: Q04DX003 (ip), vehicle: saline with Tween-80); 155 % of control under setting [12].
For `CN(C)c1ccc(/C=C2\C=Cc3ccccc32)cc1`, the T/C by setting is: under setting [3], 92 % of control; under setting [4], 89 % of control; under setting [5], 92 % of control.
For `O=CNC(Cc1ccccc1)C(=O)O` (stereo unspecified), the T/C is 106 % of control under setting [3], 92 % of control under setting [4] and 89 % of control under setting [5].
Take `CC(=O)C(Cl)C(=O)c1c(C)[nH]n(-c2ccccc2)c1=O` (stereo unspecified): the T/C is, setting by setting: under setting [6], 108 % of control; under setting [7], 98 % of control.
Consider `O=S(=O)(O)O.[W]`, for which the T/C is, setting by setting: (dose: 0.75 mg/kg/injection, schedule: Q01DX009 (ip), vehicle: saline) 87 % of control and 100 % of control; (dose: 1.5 mg/kg/injection, schedule: Q01DX009 (ip), vehicle: saline) 91 % of control and 101 % of control.
For `Cc1ccc(C)c(NC(=O)Nc2cccc(Cl)c2)c1`, the T/C reads like this: under setting [8], 102 % of control; under setting [10], 100 % of control.
With `CC(=O)[C@H]1CC[C@H]2[C@@H]3C[C@H](C)C4=CC(=O)CC[C@]4(C)[C@H]3C(=O)C[C@]12C`, the T/C was 107 % of control under setting [8], 92 % of control under setting [10] and 94 % of control under setting [11].
Turning to `CCO/C=C1\SC(=S)N(Cc2ccccc2)C1=O`, the T/C by setting is: (dose: 3.12 mg/kg/injection, schedule: Q01DX009 (ip), vehicle: saline with Tween-80) 111 % of control; under setting [15], 123 % of control; under setting [9], 92 % of control; under setting [1], 123 % of control; under setting [6], 102 % of control and 105 % of control; under setting [2], 111 % of control.
For `Cc1cccc(CN)n1`, the T/C under setting [13] was 105 % of control and the T/C under setting [14] is 118 % of control.
As to `NNC(=O)c1ccccc1O`, the T/C under setting [2] is 100 % of control, the T/C under setting [3] was 95 % of control and the T/C under setting [4] was 95 % of control.
With `CCOc1ccccc1NC(=O)Nc1ccccc1`, the T/C is 102 % of control under setting [8], 103 % of control under setting [10] and 99 % of control under setting [11].
With `C=CCc1c(C)ccc(C)c1OC`, the T/C by setting is: (dose: 25.0 mg/kg/injection, schedule: Q04DX003 (ip), vehicle: Klucel (hydroxypropylcellulose) (HPC)) 102 % of control; (dose: 50.0 mg/kg/injection, schedule: Q04DX003 (ip), vehicle: Klucel (hydroxypropylcellulose) (HPC)) 101 % of control; (dose: 100.0 mg/kg/injection, schedule: Q04DX003 (ip), vehicle: Klucel (hydroxypropylcellulose) (HPC)) 93 % of control.
For `Cc1cc(/C=C/c2cc[n+](C)c3ccccc23)c(O)c2ncccc12`, the T/C reads like this: (dose: 3.0 mg/kg/injection, schedule: Q01DX009 (ip), vehicle: saline sonified) 104 % of control; (dose: 6.0 mg/kg/injection, schedule: Q01DX009 (ip), vehicle: saline sonified) 97 % of control; (dose: 12.0 mg/kg/injection, schedule: Q01DX009 (ip), vehicle: saline sonified) 97 % of control; (dose: 24.0 mg/kg/injection, schedule: Q01DX009 (ip), vehicle: saline sonified) 100 % of control; (dose: 48.0 mg/kg/injection, schedule: Q01DX009 (ip), vehicle: saline sonified) 104 % of control.
